Assay results reported in patent US5672715A, “Herbicidal substituted 3-aryl-pyrazoles” (Monsanto Company, priority 1995, dated 1997).
Where two headings read alike, the source gives them in different places.

Experiments:
Type in all cases: in vivo
[1] = system: Bedstraw Catchweed; assay: post-emergence herbicide test; conditions: Galium aparine, post-emergence, read-out: % plant inhibition
Method in brief: (§1)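 Plants were raised from seed in topsoil pans in the greenhouse and treated post-emergence at two to three weeks of age. Candidate chemical was applied in spray solution or suspension containing about 0.4% emulsifier at 1870 L/Ha. Activity recorded as percent inhibition.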

[2] = system: Barnyardgrass; assay: post-emergence herbicide test; conditions: Echinochloa crus-galli, post-emergence, read-out: % plant inhibition
Method in brief: as §1

[3] = system: Corn; assay: post-emergence herbicide test; conditions: Zea mays, post-emergence, read-out: % plant inhibition
Method in brief: as §1

[4] = system: Cocklebur; assay: post-emergence herbicide test; conditions: Xanthium strumarium, post-emergence, read-out: % plant inhibition
Method in brief: as §1

[5] = system: Blackgrass; assay: post-emergence herbicide test; conditions: Alopecurus myosuroides, post-emergence, read-out: % plant inhibition; for inhibition at 7.95803 g/ha: 0.0071 lb/A; for inhibition at 40.0143 g/ha: 0.0357 lb/A; for inhibition at 200.072 g/ha: 0.1785 lb/A; for inhibition at 1000.92 g/ha: 0.893 lb/A
Method in brief: as §1

[6] = system: Soybean; assay: post-emergence herbicide test; conditions: Glycine max, post-emergence, read-out: % plant inhibition
Method in brief: as §1

[7] = system: Velvetleaf; assay: pre-emergence herbicide test; conditions: Abutilon theophrasti, pre-emergence, read-out: % plant inhibition
Method in brief: (§2)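 Pans of compacted topsoil received seeds and then a cover layer treated with test compound from an acetone or water carrier. Plants grew under greenhouse conditions with moisture supplied from below. Observations of % inhibition followed roughly 14 days after treatment.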

[8] = system: Morning Glory; assay: pre-emergence herbicide test; conditions: Ipomoea, pre-emergence, read-out: % plant inhibition
Method in brief: as §2

[9] = system: Barnyardgrass; assay: pre-emergence herbicide test; conditions: Echinochloa crus-galli, pre-emergence, read-out: % plant inhibition
Method in brief: as §2

[10] = system: Corn; assay: pre-emergence herbicide test; conditions: Zea mays, pre-emergence, read-out: % plant inhibition
Method in brief: as §2

[11] = system: Cocklebur; assay: pre-emergence herbicide test; conditions: Xanthium strumarium, pre-emergence, read-out: % plant inhibition
Method in brief: as §2

[12] = system: Yellow Foxtail; assay: pre-emergence herbicide test; conditions: Setaria, read-out: % plant inhibition
Method in brief: as §2

[13] = system: Rice; assay: pre-emergence herbicide test; conditions: Oryza sativa, read-out: % plant inhibition
Method in brief: as §2

[14] = system: Soybean; assay: pre-emergence herbicide test; conditions: Glycine max, pre-emergence, read-out: % plant inhibition
Method in brief: as §2

[15] = system: Yellow Nutsedge; assay: pre-emergence herbicide test; conditions: Cyperus, read-out: % plant inhibition
Method in brief: as §2

With `C#CCOc1cc(-c2nn(C)c(C(F)(F)F)c2C)c(F)cc1Cl` [Compound 39] the inhibition at 7.95803 g/ha ([1]; 0.0071 lb/A) was 0%, the inhibition at 40.0143 g/ha ([1]; 0.0357 lb/A) was 100% and the inhibition at 200.072 g/ha ([1]; 0.1785 lb/A) was 100%. The inhibition at 1000.92 g/ha ([1]; 0.893 lb/A) was 100%, the inhibition at 7.95803 g/ha ([2]; 0.0071 lb/A) was 30% and the inhibition at 40.0143 g/ha ([2]; 0.0357 lb/A) was 70%. For the same molecule, the inhibition at 200.072 g/ha ([2]; 0.1785 lb/A) was 98%, the inhibition at 1000.92 g/ha ([2]; 0.893 lb/A) was 98% and the inhibition at 7.95803 g/ha ([3]; 0.0071 lb/A) was 50%. For the same molecule, the inhibition at 40.0143 g/ha ([3]; 0.0357 lb/A) was 30%, the inhibition at 200.072 g/ha ([3]; 0.1785 lb/A) was 100% and the inhibition at 1000.92 g/ha ([3]; 0.893 lb/A) was 95%. It also gave an inhibition at 7.95803 g/ha ([4]; 0.0071 lb/A) of 80%, an inhibition at 40.0143 g/ha ([4]; 0.0357 lb/A) of 98% and an inhibition at 200.072 g/ha ([4]; 0.1785 lb/A) of 80%. The inhibition at 1000.92 g/ha ([4]; 0.893 lb/A) was 100%, the inhibition at 7.95803 g/ha ([5]; Table 4a) was 10% and the inhibition at 7.95803 g/ha ([5]; Table 5a) was 0%. It also gave an inhibition at 40.0143 g/ha ([5]; Table 4a) of 35%, an inhibition at 40.0143 g/ha ([5]; Table 5a) of 80% and an inhibition at 200.072 g/ha ([5]; Table 4a) of 25%. The inhibition at 200.072 g/ha ([5]; Table 5a) was 95%, the inhibition at 1000.92 g/ha ([5]; Table 4a) was 70% and the inhibition at 1000.92 g/ha ([5]; Table 5a) was 100%. The inhibition at 7.95803 g/ha ([6]; 0.0071 lb/A) was 25%, the inhibition at 40.0143 g/ha ([6]; 0.0357 lb/A) was 70% and the inhibition at 200.072 g/ha ([6]; 0.1785 lb/A) was 70%. The inhibition at 1000.92 g/ha ([6]; 0.893 lb/A) was 100%, the inhibition at 7.95803 g/ha ([7]; 0.0071 lb/A) was 100% and the inhibition at 40.0143 g/ha ([7]; 0.0357 lb/A) was 100%. It also gave an inhibition at 200.072 g/ha ([7]; 0.1785 lb/A) of 100%, an inhibition at 1000.92 g/ha ([7]; 0.893 lb/A) of 100% and an inhibition at 7.95803 g/ha ([8]; 0.0071 lb/A) of 70%. It also gave an inhibition at 40.0143 g/ha ([8]; 0.0357 lb/A) of 85%, an inhibition at 200.072 g/ha ([8]; 0.1785 lb/A) of 100% and an inhibition at 1000.92 g/ha ([8]; 0.893 lb/A) of 100%. The inhibition at 7.95803 g/ha ([9]; 0.0071 lb/A) was 80%, the inhibition at 40.0143 g/ha ([9]; 0.0357 lb/A) was 100% and the inhibition at 200.072 g/ha ([9]; 0.1785 lb/A) was 100%. For the same molecule, the inhibition at 280.212 g/ha ([9]; 0.25 lb/A) was 100%, the inhibition at 1000.92 g/ha ([9]; 0.893 lb/A) was 100% and the inhibition at 7.95803 g/ha ([10]; 0.0071 lb/A) was 10%. The inhibition at 40.0143 g/ha ([10]; 0.0357 lb/A) was 80%, the inhibition at 200.072 g/ha ([10]; 0.1785 lb/A) was 95% and the inhibition at 280.212 g/ha ([10]; 0.25 lb/A) was 100%. The inhibition at 1000.92 g/ha ([10]; 0.893 lb/A) was 100%, the inhibition at 7.95803 g/ha ([11]; 0.0071 lb/A) was 50% and the inhibition at 40.0143 g/ha ([11]; 0.0357 lb/A) was 80%. The inhibition at 200.072 g/ha ([11]; 0.1785 lb/A) was 95%, the inhibition at 1000.92 g/ha ([11]; 0.893 lb/A) was 100% and the inhibition at 7.95803 g/ha ([12]; 0.0071 lb/A) was 95%. The inhibition at 40.0143 g/ha ([12]; 0.0357 lb/A) was 100%, the inhibition at 200.072 g/ha ([12]; 0.1785 lb/A) was 100% and the inhibition at 280.212 g/ha ([12]; 0.25 lb/A) was 100%. The inhibition at 1000.92 g/ha ([12]; 0.893 lb/A) was 100%, the inhibition at 7.95803 g/ha ([13]; 0.0071 lb/A) was 65% and the inhibition at 40.0143 g/ha ([13]; 0.0357 lb/A) was 70%. It also gave an inhibition at 200.072 g/ha ([13]; 0.1785 lb/A) of 85%, an inhibition at 1000.92 g/ha ([13]; 0.893 lb/A) of 100% and an inhibition at 7.95803 g/ha ([14]; 0.0071 lb/A) of 0%. It also gave an inhibition at 40.0143 g/ha ([14]; 0.0357 lb/A) of 100%, an inhibition at 200.072 g/ha ([14]; 0.1785 lb/A) of 95% and an inhibition at 280.212 g/ha ([14]; 0.25 lb/A) of 95%. The inhibition at 1000.92 g/ha ([14]; 0.893 lb/A) was 100%, the inhibition at 7.95803 g/ha ([15]; 0.0071 lb/A) was 70% and the inhibition at 40.0143 g/ha ([15]; 0.0357 lb/A) was 25%. It also gave an inhibition at 200.072 g/ha ([15]; 0.1785 lb/A) of 55% and an inhibition at 1000.92 g/ha ([15]; 0.893 lb/A) of 65%.
